# Patent US20190365719A1, “COMBINATION TREATMENTS OF HSP90 INHIBITORS FOR ENHANCING TUMOR IMMUNOGENICITY AND METHODS OF USE THEREOF” (Massachusetts Institute of Technology, priority 2018, published 2019)
# Experiments:
# immune-related genes = assay: NanoString immune profiling of whole blood from breast cancer patients given ganetespib; assay type: in vivo, human; conditions: 20-24 hours post intravenous drug administration, recommended Phase II dose
# Method: Blood samples for gene expression analyses were obtained with informed consent from patients participating in an IRB-approved clinical trial coordinated by the Dana-Farber Cancer Institute, Boston, Mass. (DFCI 11-477, NCT01560416). All samples were processed and analyzed by collaborating investigators in an anonymous fashion to preserve patient confidentiality.
# Gene expression measurements using Nanostring codesets were performed with NanoString XT GEx kits. Analyses were performed on total RNA from clinical samples or mouse tumor tissue following manufacturer's instructions. Briefly, 100 ng total RNA (measured by Qubit (Invitrogen)), was mixed with Capture and Reporter probe sets and hybridized for 16-20 hours at 65° C. prior to ramping down to hold at 4° C. Hybridized samples were processed on a Nanostring Prep Station according to manufacturer's instructions and then scanned with an FOV setting of 1100. All files (.rcc) were analyzed using nSolver v3.0 software.
# As an approach to examine the impact of HSP90 compromise on the immune system in human cancer patients exposed to recommended dosing of an HSP90i, the RNA expression of immune-related genes in whole blood collected from 20 patients was profiled. […]
# [1] = system: human peripheral blood mononuclear cells; assay: RNA sequencing of ex vivo human peripheral blood mononuclear cells; assay type: cell-based; conditions: 500 nM for 20 hrs
# Method: Whole blood was collected into lithium-heparin tubes and processed with Histopaque-1077 (Sigma) to isolate peripheral blood mononuclear cells per supplier's instructions. After overnight culture in RPMI160 with 20% autologous plasma, ganetespib (500 nM) or an equal volume of solvent vehicle (DMSO 0.1% v/v) was added to duplicate dishes. Incubation was continued for 24 hours after which cells were collected by centrifugation, lysed in RLT buffer (Qiagen) and total RNA isolated using an RNeasy kit per manufacturer's instructions (Qiagen). Sequencing library preparation was performed by the Whitehead Genome Technology Core using standard Illumina protocols and TruSeq adapters. Single-end, 40 bp sequencing was performed on a HiSeq 2000 instrument. Adapter sequences were trimmed, and reads were aligned to […] using TopHat2 and rpkm values generated with Cufflinks. Differential expression analysis was performed with the Bioconductor package DEseq.
# To evaluate the immunosuppressive effect of high level HSP90 inhibition in a more controlled fashion, freshly isolated human peripheral blood mononuclear cells were cultured in ganetespib (500 nM for 20 hrs.) and the effects on RNA expression genome-wide were measured (FIG. 2A).
# [2] = cited from earlier work
# [3] = phase I, intravenous infusion days 1, 8 and 15, 4-weekly schedule
structure (smiles),measurement,setting,value
CC(C)c1cc(-c2n[nH]c(=O)n2-c2ccc3c(ccn3C)c2)c(O)cc1O [Ganetespib],expression of immune-related genes in whole blood,immune-related genes,broad down-regulation of expression across diverse immune-related genes
same,most downregulated Gene Ontology categories,[1],immune-related pathways
same,most upregulated Gene Ontology categories,[1],RNA splicing and protein folding
same,side effects / adverse effects,[2]; clinical use,"diarrhea, fatigue, nausea, and anorexia"
same,MTD as a combination therapy with crizotinib,"[2]; days 1 and 8 of a 21-day cycle, phase II",200 mg/m2
same,ocular toxicity,"[2]; human, in vivo",No ocular toxicity has been reported
same,MTD as a monotherapy,[2]; [3],216 mg/m^2
same,highest dose with acceptable toxicity (RP2D),[2]; [3],200 mg/m^2
